Results published in PubChem BioAssay (NCI).
Values joined by “and” are separate entries in the source; they are usually repeats but may differ in a detail not shown here. Equal values may be shown once.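 1) Cells in 96-well plates. 2) Compound, 48 h, 5 concentrations. 3) Linear interpolation between surrounding doses. 4) Unreached endpoint = highest concentration. GI50: concentration for 50% inhibition of growth. Definition used: TGI = concentration required for complete inhibition of growth.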

Tests used:
Assay in all cases: NCI anticancer screen, dose series, 48 h
OVCAR-4 ovarian = tested on: OVCAR-4 ovarian
COLO 205 colon = tested on: COLO 205 colon
SK-MEL-2 melanoma = tested on: SK-MEL-2 melanoma
SN12C renal = tested on: SN12C renal
MDA-MB-435 = tested on: MDA-MB-435
EKVX NSCLC = tested on: EKVX NSCLC
UO-31 renal = tested on: UO-31 renal
HS 578T breast = tested on: HS 578T breast
OVCAR-8 ovarian = tested on: OVCAR-8 ovarian
SNB-19 CNS = tested on: SNB-19 CNS

SMILES | GI50 (OVCAR-4 ovarian) | TGI (OVCAR-4 ovarian) | GI50 (COLO 205 colon) | TGI (COLO 205 colon) | GI50 (SK-MEL-2 melanoma) | TGI (SK-MEL-2 melanoma) | GI50 (SN12C renal) | TGI (SN12C renal) | TGI (MDA-MB-435) | GI50 (EKVX NSCLC) | TGI (EKVX NSCLC) | GI50 (UO-31 renal) | TGI (UO-31 renal) | TGI (HS 578T breast) | GI50 (OVCAR-8 ovarian) | TGI (OVCAR-8 ovarian) | GI50 (SNB-19 CNS) | TGI (SNB-19 CNS) | GI50 (MDA-MB-435) | GI50 (HS 578T breast)
COC1N(C2CC(O)C(CO)O2)C(=O)NC(=O)C1(F)Br (stereo unspecified) | > 59.1 µM | > 100 µM | 42.6 µM | 50 µM and > 100 µM | > 50 µM | > 100 µM | 15.6 µM | 50 µM and > 100 µM | > 100 µM | 19.9 µM | 50 µM and > 100 µM | > 50 µM | > 100 µM | > 95.5 µM | 22.5 µM | 50 µM and > 100 µM | 26.6 µM | 50 µM and > 100 µM | – | –
CSC1=Nc2c(c(C)c(C)n2COC(CO)CO)C2=NC(=O)CN12 | > 100 µM | > 100 µM | > 100 µM | > 100 µM | > 100 µM | > 100 µM | > 100 µM | > 100 µM | > 100 µM | > 100 µM | > 100 µM | > 100 µM | > 100 µM | > 100 µM | > 100 µM | > 100 µM | > 100 µM | > 100 µM | > 100000 nM | > 100 µM
CC1(C)OC[C@@H]([C@@]2(CO[Si](c3ccccc3)(c3ccccc3)C(C)(C)C)CC=CC(=O)O2)O1 | 16.1 µM | > 100 µM | 8.69 µM | > 100 µM | 6.23 µM | > 100 µM | 5.39 µM | 35.9 µM | 31.2 µM | 12.1 µM | 37.8 µM | 12.2 µM | > 100 µM | > 100 µM | 5.05 µM | > 100 µM | 15.5 µM | 97.5 µM | 4980 nM | 9.01 µM
C[C@]12CC[C@H]3[C@@H](CCC4=CC(=O)CC[C@@]43C)[C@@H]1CC[C@@H]2c1csc(N)n1 | 2.98 µM | 27.2 µM | 3.57 µM | 14.2 µM | 14.5 µM | 32.7 µM | 3.57 µM | 24.5 µM | 10.6 µM | 1.12 µM | 8.39 µM | 2.46 µM | 11.2 µM | 35.8 µM | 3.42 µM | 26.7 µM | 10.2 µM | 31.2 µM | 2630 nM | 8.84 µM
Cc1nn(-c2ccc(Cl)cc2)c2ncnc(N/N=C/c3ccccc3O)c12 | 0.436 µM and 0.237 µM | 50.9 µM and 14.2 µM | 0.776 µM and 0.398 µM | > 46.2 µM and 27.6 µM | 1.24 µM and 1.59 µM | 37.2 µM and > 100 µM | 0.804 µM and 0.473 µM | > 91.7 µM | > 100 µM | 0.96 µM and 0.993 µM | 30.8 µM and > 100 µM | 0.331 µM and 0.251 µM | 3.01 µM and 3.35 µM | > 88.1 µM | 0.42 µM and 0.361 µM | 43.2 µM and > 100 µM | 1.08 µM and 0.604 µM | > 80.4 µM | 1100 nM and 571 nM | 4.12 µM and 2.12 µM
COc1ccc(OC)c(/C=C/c2nc(=S)n(-c3ccc(Cl)cc3)[nH]2)c1 | 20.6 µM | > 100 µM | 12.4 µM | 68.4 µM | 4.05 µM | > 100 µM | 6.07 µM | > 100 µM | > 100 µM | 30 µM | > 100 µM | – | – | > 100 µM | 28.4 µM | > 100 µM | 12.7 µM | > 100 µM | 2830 nM | 3.1 µM
CCn1c2c(c3ccccc3c1=O)C(=O)c1ccccc1-2 | – | > 100 µM | – | > 100 µM | – | > 100 µM | – | > 100 µM | > 100 µM | – | > 100 µM | – | > 100 µM | > 100 µM | – | > 100 µM | – | > 100 µM | – | –
COc1ccc2c(c1)C(=O)c1c-2c(Nc2ccccc2OC)nc2ccccc12 | 50.5 µM | > 100 µM | > 100 µM | > 100 µM | > 100 µM | > 100 µM | 42.1 µM | > 100 µM | > 100 µM | > 100 µM | > 100 µM | > 100 µM | > 100 µM | > 100 µM | > 100 µM | > 100 µM | > 100 µM | > 100 µM | > 100000 nM | > 100 µM
COc1ccc2c(N)ncc(C#Cc3cc(C(=O)Nc4ccc(CN5CCN(C)CC5)c(C(F)(F)F)c4)cnc3C)c2c1 | 1.13 µM | 10.9 µM | 0.568 µM | 4.48 µM | 0.771 µM | 2.67 µM | 0.594 µM | 1.52 µM | 3.1 µM | 5.11 µM | 19 µM | 0.632 µM | 2.28 µM | 4.2 µM | 0.861 µM | 2.71 µM | 0.933 µM | 2.38 µM | 647 nM | 0.847 µM
Nc1ncc(Cc2ccc3c(c2)OCO3)c(N)n1 | – | > 100 µM | – | > 100 µM | – | – | – | > 100 µM | > 100 µM | – | > 100 µM | – | > 100 µM | > 100 µM | – | > 100 µM | – | > 100 µM | – | –
O=C1c2cccc(Oc3ccccc3)c2C(=O)c2cccc(Oc3ccccc3)c21 | – | – | > 100 µM | > 100 µM | 96.7 µM | > 100 µM | > 100 µM | > 100 µM | > 100 µM | > 100 µM | > 100 µM | > 100 µM | > 100 µM | > 100 µM | > 100 µM | > 100 µM | 9.56 µM | 72.1 µM | > 100000 nM | 7.68 µM
O=C1NC(=N[C@@H](CO)c2ccccc2)S/C1=C\c1ccc2ncccc2c1 | 12.5 µM | > 25 µM | 5.5 µM | 15.9 µM | 4.73 µM | 12.9 µM | 8.1 µM | > 25 µM | 15.3 µM | – | – | 4.53 µM | > 21.2 µM | > 25 µM | 8.93 µM | > 25 µM | 24.2 µM | > 25 µM | 3650 nM | 4.84 µM
CCCCCCCCCCCC[N+]1(CCCCCCCCCCCC)CCCC(C)C1 (stereo unspecified) | – | – | – | – | – | – | – | – | 1.09 µM | 0.269 µM | 1.65 µM | – | – | 2.2 µM | – | – | – | – | 277 nM | 0.472 µM
O=C1CC(c2ccccc2)Oc2ccccc21 (stereo unspecified) | – | > 100 µM | – | > 100 µM | – | 86.7 µM | – | – | > 100 µM | – | > 100 µM | – | > 100 µM | > 100 µM | – | > 100 µM | – | 83.4 µM | – | –
